In patent publication US12151999B2, “Small molecule compounds having naphthylamine structure and application thereof” (Hangzhou PhecdaMed Co., Ltd., priority 2021, dated 2024):

Test system: HEK293Tmtkeima cells
Experiment: Functional test of mitophagy inducer (mtKeima imaging, with or without CCCP-induced mitochondrial damage)
Assay type: cell-based, Human
Settings: HEK293Tmtkeima cells, 5 uM or 10 uM CCCP to induce mitochondrial damage; number of cells in which damaged mitophagy occurs/number of all cells
Procedure: Group 1: Human embryonic kidney transformed cells HEK293Tmtkeima cells were treated with 0 μM, 1.25 μM, 2.5 μM, 5 μM and 10 μM CCCP respectively, and seeded in a 96-well black ELISA PLATE at 1.5*10^5 cells/ml, 100 μL per well. Compound I-2 was added after 25 hours, and 3 replicates were set. At 37° C., under 5% CO2 incubation conditions, photographs were taken every few hours with biotek cytation 5 for a total of 20 hours, with the bright field as the focusing channel, and 9 images were taken per hole, and the images were processed using the instrument software.
Group 2: Human embryonic kidney transformed cells HEK293Tmtkeima cells were seeded in a 96-well black ELISA PLATE at […], 100 μL per well; compounds I-1˜I-44 and UMI-77 were added after 25 hours, set up 3 replicates; under 37° C., 5% CO2 culture conditions, use biotek every few hours Cytation 5 was used to take photos, a total of 20 hours of shooting. In another group of cells under the same conditions, human embryonic kidney-transformed cells HEK293Tmtkeima cells were seeded in a 96-well black enzyme plate at 1.5*10^5 cells/ml, 100 μl per well; after 24 hours, 5 uM or 10 uM CCCP (Carbonyl cyanide) was first added 3-chlorophenylhydrazone) to induce mitochondrial damage, then add I-1˜I-44, UMI-77 1 hour later, set up 3 repetitions; under 37° C., 5% CO2 culture conditions, pictures were taken every few hours with biotek cytation 5, photographs were taken for 20 hours. Another group of human embryonic kidney transformed cells HEK293Tmtkeima cells was seeded at 1.5*10^5 cells/ml in 96-well black ELISA PLATE at 100 μl per well under the same conditions, 24 hours later 5 uM or 10 uM CCCP (Carbonyl cyanide 3-chlorophenylhydrazone) was first added to induce mitochondrial damage, after 1 hour then add I-1 to I-44, UMI-77 and set up 3 replicates. At 37° C., under 5% CO2 incubation conditions, pictures were taken every few hours with biotek cytation 5, photographs were taken for 20 hours, with the bright field as the focusing channel for both groups, and 9 images were taken per hole, and the images were processed using the instrument software.

Structure (SMILES) | The ability of selection to induce autophagy in damaged mitochondria
O=C(O)C[S+]([O-])c1cc(N(C2COC2)S(=O)(=O)c2ccc(Br)cc2)c2ccccc2c1O (stereo not drawn) [Compound I-4] | + (weak ability to selectively induce autophagy in damaged mitochondria (number of cells in which damaged mitophagy occurs/number of all cells in the range of 0.1 to 0.2))
O=C(O)C[S+]([O-])c1cc(N2CCN=S2(=O)c2ccc(Br)cc2)c2ccccc2c1O (stereo not drawn) [Compound I-27] | ++ (moderate ability to selectively induce autophagy in damaged mitochondria (number of cells in which damaged mitophagy occurs/number of all cells in the range of 0.2 to 0.3))
Cn1cc(S(=O)(=O)Nc2cc([S+]([O-])CC(=O)CO)c(O)c3ccccc23)cn1 (stereo not drawn) [Compound I-36] | ++ (moderate ability to selectively induce autophagy in damaged mitochondria (number of cells in which damaged mitophagy occurs/number of all cells in the range of 0.2 to 0.3))
O=S(=O)(Nc1cc([S+]([O-])Cc2nnc[nH]2)c(O)c2ccccc12)c1ccc(Br)cc1 (stereo not drawn) [Compound I-8] | +++ (strong ability to selectively induce autophagy in damaged mitochondria (number of cells in which damaged mitophagy occurs/number of all cells >0.30))
O=C(O)CS(=O)(=O)c1cc(NS(=O)(=O)c2ccc(C(F)(F)F)cc2)c2ccccc2c1O [Compound I-14-2] | ++ (moderate ability to selectively induce autophagy in damaged mitochondria (number of cells in which damaged mitophagy occurs/number of all cells in the range of 0.2 to 0.3))
O=C(O)C[S+]([O-])c1cc(NC(=O)c2cccc(Br)c2)c2ccccc2c1O (stereo not drawn) [Compound I-35-1] | + (weak ability to selectively induce autophagy in damaged mitochondria (number of cells in which damaged mitophagy occurs/number of all cells in the range of 0.1 to 0.2))
O=C(O)C[S+]([O-])c1cc(NS(=O)(=O)c2ccc(Br)cc2)c2cc(Br)ccc2c1O (stereo not drawn) [Compound I-29] | +++ (strong ability to selectively induce autophagy in damaged mitochondria (number of cells in which damaged mitophagy occurs/number of all cells >0.30))
O=C(O)C[S+]([O-])c1cc(N2CCCN=S2(=O)c2ccc(Br)cc2)c2ccccc2c1O (stereo not drawn) [Compound I-28] | + (weak ability to selectively induce autophagy in damaged mitochondria (number of cells in which damaged mitophagy occurs/number of all cells in the range of 0.1 to 0.2))
O=C(O)C[S+]([O-])c1cc(NS(=O)(=O)c2ccc(OC(F)(F)F)cc2)c2ccccc2c1O (stereo not drawn) [Compound I-21-1] | +++ (strong ability to selectively induce autophagy in damaged mitochondria (number of cells in which damaged mitophagy occurs/number of all cells >0.30))
O=C(O)C[S+]([O-])c1cc(NS(=O)(=O)c2ccc(Cl)c(Cl)c2)c2ccccc2c1O (stereo not drawn) [Compound I-17-1] | +++ (strong ability to selectively induce autophagy in damaged mitochondria (number of cells in which damaged mitophagy occurs/number of all cells >0.30))
O=C(O)CS(=O)(=O)c1cc(NS(=O)(=O)c2cccs2)c2ccccc2c1O [Compound I-13-2] | ++ (moderate ability to selectively induce autophagy in damaged mitochondria (number of cells in which damaged mitophagy occurs/number of all cells in the range of 0.2 to 0.3))
O=C(O)C[S+]([O-])c1cc(NS(=O)(=O)c2ccc(N3CCCC3)cc2)c2ccccc2c1O (stereo not drawn) [Compound I-18-1] | + (weak ability to selectively induce autophagy in damaged mitochondria (number of cells in which damaged mitophagy occurs/number of all cells in the range of 0.1 to 0.2))
O=C(O)C[S+]([O-])c1cc(NS(=O)(=O)c2ccc([N+](=O)[O-])cc2)c2ccccc2c1O (stereo not drawn) [Compound I-22-1] | + (weak ability to selectively induce autophagy in damaged mitochondria (number of cells in which damaged mitophagy occurs/number of all cells in the range of 0.1 to 0.2))
CN=S(=O)(Nc1cc([S+]([O-])CC(=O)O)c(O)c2ccccc12)c1ccc(Br)cc1 (stereo not drawn) [Compound I-25-1] | +++ (strong ability to selectively induce autophagy in damaged mitochondria (number of cells in which damaged mitophagy occurs/number of all cells >0.30))
O=C(O)CS(=O)(=O)c1cc(NS(=O)(=O)c2cccc(-c3ccccc3)c2)c2ccccc2c1O [Compound I-23-2] | ++ (moderate ability to selectively induce autophagy in damaged mitochondria (number of cells in which damaged mitophagy occurs/number of all cells in the range of 0.2 to 0.3))
O=C(O)C[S+]([O-])c1cc(NS(=O)(=O)c2cccs2)c2ccccc2c1O (stereo not drawn) [Compound I-13-1] | +++ (strong ability to selectively induce autophagy in damaged mitochondria (number of cells in which damaged mitophagy occurs/number of all cells >0.30))
O=C(O)C[S+]([O-])c1cc(NS(=O)(=O)c2ccc(C3CC3)cc2)c2ccccc2c1O (stereo not drawn) [Compound I-20-1] | ++ (moderate ability to selectively induce autophagy in damaged mitochondria (number of cells in which damaged mitophagy occurs/number of all cells in the range of 0.2 to 0.3))
O=C(O)C[S+]([O-])c1cc(NS(=O)(=O)c2ccc(Oc3ccccc3)cc2)c2ccccc2c1O (stereo not drawn) [Compound I-16-1] | ++ (moderate ability to selectively induce autophagy in damaged mitochondria (number of cells in which damaged mitophagy occurs/number of all cells in the range of 0.2 to 0.3))
O=C(O)CS(=O)(=O)c1cc(NS(=O)(=O)c2ccc(Br)cc2)c2ccccc2c1O [Compound I-42] | + (weak ability to selectively induce autophagy in damaged mitochondria (number of cells in which damaged mitophagy occurs/number of all cells in the range of 0.1 to 0.2))
NC(=O)C[S+]([O-])c1cc(NS(=O)(=O)c2ccc(Br)cc2)c2ccccc2c1O (stereo not drawn) [Compound I-5] | + (weak ability to selectively induce autophagy in damaged mitochondria (number of cells in which damaged mitophagy occurs/number of all cells in the range of 0.1 to 0.2))
O=C(O)C[S+]([O-])c1cc(NS(=O)(=O)c2ccc(C(F)(F)F)cc2)c2ccccc2c1O (stereo not drawn) [Compound I-14-1] | ++ (moderate ability to selectively induce autophagy in damaged mitochondria (number of cells in which damaged mitophagy occurs/number of all cells in the range of 0.2 to 0.3))
COc1ccc(S(=O)(=O)Nc2cc([S+]([O-])CC(=O)O)c(O)c3ccccc23)cc1 (stereo not drawn) [Compound I-15-1] | + (weak ability to selectively induce autophagy in damaged mitochondria (number of cells in which damaged mitophagy occurs/number of all cells in the range of 0.1 to 0.2))
Cc1noc(C)c1S(=O)(=O)Nc1cc([S+]([O-])CC(=O)O)c(O)c2ccccc12 (stereo not drawn) [Compound I-37] | ++ (moderate ability to selectively induce autophagy in damaged mitochondria (number of cells in which damaged mitophagy occurs/number of all cells in the range of 0.2 to 0.3))
COP(=O)(Nc1cc([S+]([O-])CC(=O)O)c(O)c2ccccc12)c1ccc(Br)cc1 (stereo not drawn) [Compound I-33] | ++ (moderate ability to selectively induce autophagy in damaged mitochondria (number of cells in which damaged mitophagy occurs/number of all cells in the range of 0.2 to 0.3))
O=C(O)C[S+]([O-])c1cc(N(C2CC2)S(=O)(=O)c2ccc(Br)cc2)c2ccccc2c1O (stereo not drawn) [Compound I-3] | ++ (moderate ability to selectively induce autophagy in damaged mitochondria (number of cells in which damaged mitophagy occurs/number of all cells in the range of 0.2 to 0.3))
NC(=S)C[S+]([O-])c1cc(NS(=O)(=O)c2ccc(Br)cc2)c2ccccc2c1O (stereo not drawn) [Compound I-6] | + (weak ability to selectively induce autophagy in damaged mitochondria (number of cells in which damaged mitophagy occurs/number of all cells in the range of 0.1 to 0.2))
O=C(O)C[S+]([O-])c1cc(NS(=O)(=O)c2cccc(F)c2)c2ccccc2c1O (stereo not drawn) [Compound I-24-1] | + (weak ability to selectively induce autophagy in damaged mitochondria (number of cells in which damaged mitophagy occurs/number of all cells in the range of 0.1 to 0.2))
